# Measurements taken from US9108983B2, “Pyrrole compounds, a process for their preparation and pharmaceutical compositions containing them” (LES LABORATOIRES SERVIER, priority 2013, dated 2015).
# Structures can show the parent of a compound that is named as a salt. Where two headings read alike, the source gives them in different places.
# Columns and labels:
# [1] = test system: RS4;11 leukaemia tumour line; experiment: In vitro cytotoxicity (Microculture Tetrazolium Assay); type: cell-based; conditions: RS4;11 cells, exposed for 48 hours, cell viability, read-out: IC50 (nM) MTT RS4;11
# Description: The cytotoxicity studies were carried out on the RS4;11 leukaemia tumour line.
# The cells are distributed onto microplates and exposed to the test compounds for 48 hours.
# The cell viability is then quantified by a colorimetric assay, the Microculture Tetrazolium Assay (Cancer Res., 1987, 47, 939-942).
# Bcl-2 protein = Bcl-2 protein (histag-Bcl-2, UniProtKB P10415) (Homo sapiens (Human), UniProt P10415); experiment: Inhibition of Bcl-2 by the fluorescence polarisation technique; type: binding; conditions: incubation for 2 hours, read-out: IC50 (nM) Bcl-2 FP
# Description: The fluorescence polarisation tests were carried out on microplates (384 wells). The Bcl-2 protein, labelled (histag-Bcl-2 such that Bcl-2 corresponds to the UniProtKB® primary accession number: P10415), at a final concentration of 2.50×10^−8 M, is mixed with a fluorescent peptide (Fluorescein-[…]), at a final concentration of 1.00×10^−8 M in a buffer solution (Hepes 10 mM, NaCl 150 mM, Tween20 0.05%, pH 7.4), in the presence or absence of increasing concentrations of test compounds. After incubation for 2 hours, the fluorescence polarisation is measured.
# Bcl-2 protein, sequence (P10415 whole entry): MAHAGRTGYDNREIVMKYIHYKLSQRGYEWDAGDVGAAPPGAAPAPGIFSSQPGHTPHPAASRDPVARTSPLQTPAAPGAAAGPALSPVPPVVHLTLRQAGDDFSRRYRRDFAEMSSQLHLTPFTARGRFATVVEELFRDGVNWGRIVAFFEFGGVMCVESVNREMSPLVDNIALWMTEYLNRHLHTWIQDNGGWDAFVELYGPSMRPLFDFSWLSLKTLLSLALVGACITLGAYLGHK
Compound,"IC50 ([1]; Homo sapiens, RS4-11, 48 h) [nM]",other results
"5-(5-Fluoro-4-methoxy-2-{[(3S)-3-(morpholin-4-ylmethyl)-3,4-dihydroisoquinolin-2(1H)-yl]carbonyl}phenyl)-N-(4-hydroxyphenyl)-1,2-dimethyl-N-(1-methyl-2,3-dihydro-1H-pyrrolo[2,3-b]pyridin-5-yl)-1H-pyrrole-3-carboxamide hydrochloride [Example 210]",–,IC50 [1]: 47.2 nM; IC50 (Bcl-2 protein): 8.8 nM
"Cc1c(C(=O)N(c2ccc(O)cc2)c2cnn(C3CCOC3)c2)cc(-c2cc(F)ccc2C(=O)N2Cc3ccccc3C[C@H]2CN2CCOCC2)n1C (single isomer, unassigned) [Example 402, 5-(5-Fluoro-2-{[(3S)-3-(morpholin-4-ylmethyl)-3,4-dihydroisoquinolin-2(1H)-yl]carbonyl}phenyl)-N-(4-hydroxyphenyl)-1,2-dimethyl-N-{1-[(3S or R)-tetrahydrofuran-3-yl]-1H-pyrazol-4-yl}-1H-pyrrole-3-carboxamide hydrochloride]",241,IC50 (Bcl-2 protein): 26.1 nM
"Cc1c(C(=O)N(c2ccc(O)cc2)c2cnn(C3CCOC3)c2)cc(-c2cc(F)ccc2C(=O)N2Cc3ccccc3C[C@H]2CN2CCOCC2)n1C (single isomer, unassigned) [Example 403, 5-(5-Fluoro-2-{[(3S)-3-(morpholin-4-ylmethyl)-3,4-dihydroisoquinolin-2(1H)-yl]carbonyl}phenyl)-N-(4-hydroxyphenyl)-1,2-dimethyl-N-{1-[(3R or S)-tetrahydrofuran-3-yl]-1H-pyrazol-4-yl}-1H-pyrrole-3-carboxamide hydrochloride]",–,IC50 ([1]; hydrochloride): 289 nM; IC50 (Bcl-2 protein): 24.2 nM
"Cc1c(C(=O)N(c2ccc(O)cc2)c2cnn(C)c2)cc(-c2cc(Cl)ccc2C(=O)N2Cc3ccccc3C[C@H]2C)n1C [Example 1, 5-(5-Chloro-2-{[(3R)-3-methyl-3,4-dihydroisoquinolin-2(1H)-yl]carbonyl}phenyl)-N-(4-hydroxyphenyl)-1,2-dimethyl-N-(1-methyl-1H-pyrazol-4-yl)-1H-pyrrole-3-carboxamide]",33.6,IC50 (Bcl-2 protein): 5 nM
"Cn1cc(C(=O)N(c2ccccc2)c2ccccc2)cc1-c1ccccc1C(=O)N1Cc2ccccc2C[C@H]1CN [Example 2, 5-(2-{[(3S)-3-(Aminomethyl)-3,4-dihydroisoquinolin-2(1H)-yl]carbonyl}phenyl)-1-methyl-N,N-diphenyl-1H-pyrrole-3-carboxamide]",1660,–
"CN1CCN(C[C@@H]2Cc3ccccc3CN2C(=O)c2ccc(Cl)cc2-c2cc(C(=O)N(c3ccc(O)cc3)c3ccc4[nH]ccc4c3)cn2C)CC1 [Example 3, 5-(5-Chloro-2-{[(3S)-3-[(4-methylpiperazin-1-yl)methyl]-3,4-dihydroisoquinolin-2(1H)-yl]carbonyl}phenyl)-N-(4-hydroxyphenyl)-N-(1H-indol-5-yl)-1-methyl-1H-pyrrole-3-carboxamide]",94.9,IC50 (Bcl-2 protein): 24.6 nM
"CN1CCN(C[C@@H]2Cc3ccccc3CN2C(=O)c2cc3c(cc2-c2cc(C(=O)N(c4ccc(O)cc4)c4ccc5[nH]ccc5c4)cn2C)OCO3)CC1 [Example 4, N-(4-Hydroxyphenyl)-N-(1H-indol-5-yl)-1-methyl-5-(6-{[(3S)-3-[(4-methylpiperazin-1-yl)methyl]-3,4-dihydroisoquinolin-2(1H)-yl]carbonyl}-1,3-benzodioxol-5-yl)-1H-pyrrole-3-carboxamide]",231,–
CC(C)n1cc(C(=O)N(c2ccc(O)cc2)c2ccc3c(ccn3C)c2)cc1-c1cc(Cl)ccc1C(=O)N1Cc2ccccc2C[C@H]1CN1CCN(C)CC1 [Example 8],–,IC50 [1]: 255 nM
"Cc1c(C(=O)N(c2ccccc2)c2ccc(O)cc2)cc(-c2cc(Cl)ccc2C(=O)N2Cc3ccccc3C[C@H]2COCCN(C)C)n1C [Example 60, 5-(5-Chloro-2-{[(3S)-3-{[2-(dimethylamino)ethoxy]methyl}-3,4-dihydroisoquinolin-2(1H)-yl]carbonyl}phenyl)-N-(4-hydroxyphenyl)-1,2-dimethyl-N-phenyl-1H-pyrrole-3-carboxamide hydrochloride]",18.3,–
"Cc1c(C(=O)N(c2ccc(O)cc2)c2cnn(C)c2)cc(-c2cc(F)ccc2C(=O)N2Cc3ccccc3C[C@H]2CN2CCOCC2)n1C [Example 67, 5-(5-Fluoro-2-{[(3S)-3-(morpholin-4-ylmethyl)-3,4-dihydroisoquinolin-2(1H)-yl]carbonyl}phenyl)-N-(4-hydroxyphenyl)-1,2-dimethyl-N-(1-methyl-1H-pyrazol-4-yl)-1H-pyrrole-3-carboxamide hydrochloride]",98.6,–
"C[C@@H]1Cc2ccccc2CN1C(=O)c1cc2c(cc1-c1cc(C(=O)N(c3ccc(O)cc3)c3cnn(C)c3)c(CCN3CCOCC3)n1C)OCO2 [Example 81, N-(4-Hydroxyphenyl)-1-methyl-5-(6-{[(3R)-3-methyl-3,4-dihydroisoquinolin-2(1H)-yl]carbonyl}-1,3-benzodioxol-5-yl)-N-(1-methyl-1H-pyrazol-4-yl)-2-[2-(morpholin-4-yl)ethyl]-1H-pyrrole-3-carboxamide hydrochloride]",249,–
"Cc1c(N(C(=O)c2cc(-c3cc(Cl)ccc3C(=O)N3Cc4ccccc4C[C@H]3CN3CCOCC3)n(C)c2C)c2ccc(O)cc2)cc(C#N)n1C [Example 386, 5-(5-Chloro-2-{[(3S)-3-(morpholin-4-ylmethyl)-3,4-dihydroisoquinolin-2(1H)-yl]carbonyl}phenyl)-N-(5-cyano-1,2-dimethyl-1H-pyrrol-3-yl)-N-(4-hydroxyphenyl)-1,2-dimethyl-1H-pyrrole-3-carboxamide hydrochloride]",–,IC50 ([1]; Homo sapiens): 9.23 nM
"Cl.[2H]C([2H])([2H])n1cc(N(C(=O)c2cc(-c3cc(F)ccc3C(=O)N3Cc4ccccc4C[C@H]3CN3CCOCC3)n(C)c2C)c2ccc(O)cc2)cn1 [Example 420, 5-(5-Fluoro-2-{[(3S)-3-(morpholin-4-ylmethyl)-3,4-dihydroisoquinolin-2(1H)-yl]carbonyl}phenyl)-N-(4-hydroxyphenyl)-1,2-dimethyl-N-[1-(trideuteriomethyl)-1H-pyrazol-4-yl]-1H-pyrrole-3-carboxamide hydrochloride]",51.8,–
"Cc1c(C(=O)N(c2ccccc2)c2cnc3c(ccn3C)c2)cc(-c2cc(F)c(O)cc2C(=O)N2Cc3ccccc3C[C@H]2CN2CCOCC2)n1C [Example 443, 5-(5-Fluoro-4-hydroxy-2-{[(3S)-3-(morpholin-4-ylmethyl)-3,4-dihydroisoquinolin-2(1H)-yl]carbonyl}phenyl)-1,2-dimethyl-N-(1-methyl-1H-pyrrolo[2,3-b]pyridin-5-yl)-N-phenyl-1H-pyrrole-3-carboxamide]",57.9,–
"Cl.[2H]C([2H])([2H])n1c(C#N)cc(N(C(=O)c2cc(-c3cc(Cl)ccc3C(=O)N3Cc4ccccc4C[C@H]3CN3CCOCC3)n(C)c2C)c2ccc(O)cc2)c1C [Example 449, 5-(5-Chloro-2-{[(3S)-3-(morpholin-4-ylmethyl)-3,4-dihydroisoquinolin-2(1H)-yl]carbonyl}phenyl)-N-[5-cyano-2-methyl-1-(trideuteriomethyl)-1H-pyrrol-3-yl]-N-(4-hydroxyphenyl)-1,2-dimethyl-1H-pyrrole-3-carboxamide hydrochloride]",–,IC50 ([1]; Homo sapiens): 11.9 nM
"COc1ccc(N(C(=O)c2cc(-c3cc(Cl)ccc3C(=O)N3Cc4ccccc4C[C@H]3CN3CCOCC3)n(C)c2C)c2ccc(O)cc2)nc1C#N [Example 457, 5-(5-Chloro-2-{[(3S)-3-(morpholin-4-ylmethyl)-3,4-dihydroisoquinolin-2(1H)-yl]carbonyl}phenyl)-N-(6-cyano-5-methoxypyridin-2-yl)-N-(4-hydroxyphenyl)-1,2-dimethyl-1H-pyrrole-3-carboxamide hydrochloride]",80.4,–
"CCOc1ncc(N(C(=O)c2cc(-c3cc(F)ccc3C(=O)N3Cc4ccccc4C[C@H]3CN3CCOCC3)n(C)c2C)c2ccc(O)cc2)cn1 [Example 463, N-(2-Ethoxypyrimidin-5-yl)-5-(5-fluoro-2-{[(3S)-3-(morpholin-4-ylmethyl)-3,4-dihydroisoquinolin-2(1H)-yl]carbonyl}phenyl)-N-(4-hydroxyphenyl)-1,2-dimethyl-1H-pyrrole-3-carboxamide]",40.8,–
"Cc1c(N(C(=O)c2cc(-c3ccc(Cl)cc3C(=O)N3Cc4ccccc4C[C@H]3CN3CCOCC3)n(C)c2C)c2ccc(O)cc2)cc(C#N)n1C [Example 465, 5-(4-Chloro-2-{[(3S)-3-(morpholin-4-ylmethyl)-3,4-dihydroisoquinolin-2(1H)-yl]carbonyl}phenyl)-N-(5-cyano-1,2-dimethyl-1H-pyrrol-3-yl)-N-(4-hydroxyphenyl)-1,2-dimethyl-1H-pyrrole-3-carboxamide hydrochloride]",50.6,–
"Cc1c(C(=O)N(c2ccc(O)cc2)c2cnn(C)c2)cc(-c2ccc(Cl)cc2C(=O)N2Cc3ccccc3C[C@H]2CN2CCOCC2)n1C [Example 466, 5-(4-Chloro-2-{[(3S)-3-(morpholin-4-ylmethyl)-3,4-dihydroisoquinolin-2(1H)-yl]carbonyl}phenyl)-N-(4-hydroxyphenyl)-1,2-dimethyl-N-(1-methyl-1H-pyrazol-4-yl)-1H-pyrrole-3-carboxamide hydrochloride]",493,–
